Assay results reported in patent publication US20250179066A1, “ZWITTERIONIC ANTIBACTERIAL COMPOUNDS” (Hoffmann-La Roche Inc., priority 2022, published 2025).
Where a name gives a salt, the structure may show the parent alone.

tested on: Acinetobacter baumannii ATCC17961; test: Antimicrobial susceptibility testing: 90% growth inhibitory concentration (IC90) determination; format: cell-based; conditions: Acinetobacter baumannii, ATCC17961, 16 h, 90% growth inhibitory concentration against Acinetobacter baumannii ATCC17961, Iso-Sensitest broth, OD 600 nm over 16 h; read-out: ATCC 17961 IC90
Method: The in vitro antimicrobial activity of the compounds was determined according to the following procedure: The assay used a 10-points Iso-Sensitest broth medium to measure quantitatively the in vitro activity of the compounds against Acinetobacter baumannii ATCC17961. Stock compounds in DMSO were serially twofold diluted (e.g. range from 10 to 0.0195 μM final concentration) in 384 wells microtiter plates and inoculated with 49 μL the bacterial suspension in Iso-Sensitest medium to have a final cell concentration of ˜5×10^(5) CFU/mL in a final volume/well of 50 μL/well. Microtiter plates were incubated at 35±2° C. Bacterial cell growth was determined with the measurement of optical density at λ=600 nm each min over a time course of 16 h. Growth inhibition was calculated during the logarithmic growth of the bacterial cells with determination of the concentration inhibiting 50% (IC50) and 90% (IC90) of the growth. Table 1 provides the 90% growth inhibitory concentrations (IC90) in micromoles per liter of the compounds of present invention obtained against the strain Acinetobacter baumannii ATCC17961.

Compound | IC90 [nM]
Cn1c(-c2cn(-c3ccc(N)cn3)nc2C(F)(F)F)cnc1C(=O)Nc1ccc(C(=O)N2CCN(C(=O)C3CC[N+](CCCN)(CC(=O)O)CC3)CC2)c(Cl)c1 (stereo not shown) [Example 30, 2-[1-(3-aminopropyl)-4-[4-[4-[[5-[1-(5-amino-2-pyridyl)-3-(trifluoromethyl)pyrazol-4-yl]-1-methyl-imidazole-2-carbonyl]amino]-2-chloro-benzoyl]piperazine-1-carbonyl]piperidin-1-ium-1-yl]acetic acid. 1:1 2,2,2-trifluoroacetate] | 370
COCCNc1ccc(-n2cc(-c3cnc(C(=O)Nc4ccc(C(=O)N5CCN(C(=O)[C@H]6CC[N@+](CC(=O)O)(CC7CNC7)CC6)CC5)c(Cl)c4)n3C)c(C(F)(F)F)n2)nc1 [Example 31, cis-2-[1-(Azetidin-3-ylmethyl)-4-[4-[2-chloro-4-[[5-[1-[5-(2-methoxyethylamino)-2-pyridyl]-3-(trifluoromethyl)pyrazol-4-yl]-1-methyl-imidazole-2-carbonyl]amino]benzoyl]piperazine-1-carbonyl]piperidin-1-ium-1-yl]acetic Acid;2,2,2-trifluoroacetate] | 370
Cn1c(-c2cn(-c3ccc(N)cn3)nc2C(F)(F)F)cnc1C(=O)Nc1ccc(C(=O)N2CCN(C(=O)[C@H]3CC[N@@+](CCCN)(CC(=O)O)CC3)CC2)c(Cl)c1 [Example 32, cis-2-[1-(3-aminopropyl)-4-[4-[4-[[5-[1-(5-amino-2-pyridyl)-3-(trifluoromethyl)pyrazol-4-yl]-1-methyl-imidazole-2-carbonyl]amino]-2-chloro-benzoyl]piperazine-1-carbonyl]piperidin-1-ium-1-yl]acetic acid. 1:1 2,2,2-trifluoroacetate] | 370
Cn1c(-c2cn(-c3ccc4[nH]c(CO)cc4n3)nc2C(F)(F)F)cnc1C(=O)Nc1ccc(C(=O)N2CCN(C(=O)[C@H]3CC[N@+](CC(=O)O)(CC4CNC4)CC3)CC2)c(Cl)c1 [Example 33, cis-2-[1-(azetidin-3-ylmethyl)-4-[4-[2-chloro-4-[[1-methyl-5-[1-(2-methylol-1H-pyrrolo[3,2-b]pyridin-5-yl)-3-(trifluoromethyl)pyrazol-4-yl]imidazole-2-carbonyl]amino]benzoyl]piperazine-1-carbonyl]piperidin-1-ium-1-yl]acetic acid. 1:1 2,2,2-trifluoroacetate] | 380
Cn1c(-c2cn(-c3ccc(N)cn3)nc2C(F)(F)F)cnc1C(=O)Nc1ccc(C(=O)N2CCN(C(=O)[C@H]3CC[N@+](CC(=O)O)(CC4CNC4)CC3)CC2)c(Cl)c1 [Example 34, cis-2-[4-[4-[4-[[5-[1-(5-amino-2-pyridyl)-3-(trifluoromethyl)pyrazol-4-yl]-1-methyl-imidazole-2-carbonyl]amino]-2-chloro-benzoyl]piperazine-1-carbonyl]-1-(azetidin-3-ylmethyl)piperidin-1-ium-1-yl]acetic acid. 1:1 2,2,2-trifluoroacetic acid. 1:1 2,2,2-trifluoroacetate] | 400
Cn1c(-c2cn(-c3ccc(N)cn3)nc2C(F)(F)F)cnc1C(=O)Nc1ccc(C(=O)N2CCN(C(=O)CCC[N+](CCCN)(CCCN)CC(=O)O)CC2)c(Cl)c1 [Example 35, bis(3-aminopropyl)-[4-[4-[4-[[5-[1-(5-amino-2-pyridyl)-3-(trifluoromethyl)pyrazol-4-yl]-1-methyl-imidazole-2-carbonyl]amino]-2-chloro-benzoyl]piperazino]-4-keto-butyl]-(carboxymethyl)ammonium. 1:1 2,2,2-trifluoroacetic acid. 1:1 2,2,2-trifluoroacetate] | 400
Cn1c(-c2cn(-c3ccc(NCCN)cn3)nc2C(F)(F)F)cnc1C(=O)Nc1ccc(C(=O)N2CCN(C(=O)CCC[N+](CCCCN)(CCCCN)CC(=O)O)CC2)c(Cl)c1 [Example 36, bis(4-aminobutyl)-[4-[4-[4-[[5-[1-[5-(2-aminoethylamino)-2-pyridyl]-3-(trifluoromethyl)pyrazol-4-yl]-1-methyl-imidazole-2-carbonyl]amino]-2-chloro-benzoyl]piperazino]-4-keto-butyl]-(carboxymethyl)ammonium. 1:2 2,2,2-trifluoroacetic acid. 1:1 2,2,2-trifluoroacetate] | 420
COc1ccc(-n2cc(-c3cnc(C(=O)Nc4ccc(C(=O)N5CCN(C(=O)C6CC[N+](CC(=O)O)(CC7CNC7)CC6)CC5)c(Cl)c4)n3C)c(C(F)(F)F)n2)cc1 (stereo not shown) [Example 37, 2-[1-(azetidin-3-ylmethyl)-4-[4-[2-chloro-4-[[5-[1-(4-methoxyphenyl)-3-(trifluoromethyl)pyrazol-4-yl]-1-methyl-imidazole-2-carbonyl]amino]benzoyl]piperazine-1-carbonyl]piperidin-1-ium-1-yl]acetic acid. 1:1 formate] | 420
Cn1c(-c2cn(-c3ccc(NCCO)cn3)nc2C(F)(F)F)cnc1C(=O)Nc1ccc(C(=O)N2CCN(C(=O)[C@H]3CC[N@+](CC(=O)O)(CC4CNC4)CC3)CC2)c(Cl)c1 [Example 38, cis-2-[1-(azetidin-3-ylmethyl)-4-[4-[2-chloro-4-[[5-[1-[5-(2-hydroxyethylamino)-2-pyridyl]-3-(trifluoromethyl)pyrazol-4-yl]-1-methyl-imidazole-2-carbonyl]amino]benzoyl]piperazine-1-carbonyl]piperidin-1-ium-1-yl]acetic acid; formate] | 430
Cn1c(-c2cn(-c3ccc4c(ccn4C)n3)nc2C(F)(F)F)cnc1C(=O)Nc1ccc(C(=O)N2CCN(C(=O)[C@H]3CC[N@+](CC(=O)O)(CC4CNC4)CC3)CC2)c(Cl)c1 [Example 39, cis-2-[1-(azetidin-3-ylmethyl)-4-[4-[2-chloro-4-[[1-methyl-5-[1-(1-methylpyrrolo[3,2-b]pyridin-5-yl)-3-(trifluoromethyl)pyrazol-4-yl]imidazole-2-carbonyl]amino]benzoyl]piperazine-1-carbonyl]piperidin-1-ium-1-yl]acetic acid. 1:1 2,2,2-trifluoroacetate] | 430
CC(C)Nc1ccc(-n2cc(-c3cnc(C(=O)Nc4ccc(C(=O)N5CCN(C(=O)C6CC[N+](CC(=O)O)(CC7CNC7)CC6)CC5)c(Cl)c4)n3C)c(C(F)(F)F)n2)nc1 (stereo not shown) [Example 40, 2-[1-(azetidin-3-ylmethyl)-4-[4-[2-chloro-4-[[5-[1-[5-(isopropylamino)-2-pyridyl]-3-(trifluoromethyl)pyrazol-4-yl]-1-methyl-imidazole-2-carbonyl]amino]benzoyl]piperazine-1-carbonyl]piperidin-1-ium-1-yl]acetic acid. 1:1 formate] | 430
Cn1c(-c2cn(-c3ccc(Nc4ccccn4)cn3)nc2C(F)(F)F)cnc1C(=O)Nc1ccc(C(=O)N2CCN(C(=O)C3CC[N+](CC(=O)O)(CC4CNC4)CC3)CC2)c(Cl)c1 (stereo not shown) [Example 41, 2-[1-(azetidin-3-ylmethyl)-4-[4-[2-chloro-4-[[1-methyl-5-[1-[5-(2-pyridylamino)-2-pyridyl]-3-(trifluoromethyl)pyrazol-4-yl]imidazole-2-carbonyl]amino]benzoyl]piperazine-1-carbonyl]piperidin-1-ium-1-yl]acetic acid. 1:1 formate] | 440
Cn1c(-c2cn(-c3ccc4[nH]ncc4n3)nc2C(F)(F)F)cnc1C(=O)Nc1ccc(C(=O)N2CCN(C(=O)[C@H]3CC[N@+](CC(=O)O)(CC4CNC4)CC3)CC2)c(Cl)c1 [Example 42, cis-2-[1-(azetidin-3-ylmethyl)-4-[4-[2-chloro-4-[[1-methyl-5-[1-(1H-pyrazolo[4,3-b]pyridin-5-yl)-3-(trifluoromethyl)pyrazol-4-yl]imidazole-2-carbonyl]amino]benzoyl]piperazine-1-carbonyl]piperidin-1-ium-1-yl]acetic acid. 1:1 2,2,2-trifluoroacetate] | 440
Cn1c(-c2cn(-c3nccs3)nc2C(F)(F)F)cnc1C(=O)Nc1ccc(C(=O)N2CCN(C(=O)C3CC[N+](CC(=O)O)(CC4CNC4)CC3)CC2)c(Cl)c1 (stereo not shown) [Example 43, 2-[1-(azetidin-3-ylmethyl)-4-[4-[2-chloro-4-[[1-methyl-5-[1-thiazol-2-yl-3-(trifluoromethyl)pyrazol-4-yl]imidazole-2-carbonyl]amino]benzoyl]piperazine-1-carbonyl]piperidin-1-ium-1-yl]acetic acid. 1:1 formate] | 460
Cn1c(-c2cn(-c3ccc(NC4CC4)cn3)nc2C(F)(F)F)cnc1C(=O)Nc1ccc(C(=O)N2CCN(C(=O)C3CC[N+](CC(=O)O)(CC4CNC4)CC3)CC2)c(Cl)c1 (stereo not shown) [Example 44, 2-[1-(azetidin-3-ylmethyl)-4-[4-[2-chloro-4-[[5-[1-[5-(cyclopropylamino)-2-pyridyl]-3-(trifluoromethyl)pyrazol-4-yl]-1-methyl-imidazole-2-carbonyl]amino]benzoyl]piperazine-1-carbonyl]piperidin-1-ium-1-yl]acetic acid. 1:1 formate] | 490
CN(C)c1ccc(-n2cc(-c3cnc(C(=O)Nc4ccc(C(=O)N5CCN(C(=O)C6CC[N+](CC(=O)O)(CC7CNC7)CC6)CC5)c(Cl)c4)n3C)c(C(F)(F)F)n2)nc1 (stereo not shown) [Example 45, 2-[1-(azetidin-3-ylmethyl)-4-[4-[2-chloro-4-[[5-[1-[5-(dimethylamino)-2-pyridyl]-3-(trifluoromethyl)pyrazol-4-yl]-1-methyl-imidazole-2-carbonyl]amino]benzoyl]piperazine-1-carbonyl]piperidin-1-ium-1-yl]acetic acid. 1:1 formate] | 500
